Test results from ChEMBL document CHEMBL5214935, “Discovery of a potent M5 antagonist with improved clearance profile. Part 1: Piperidine amide-based antagonists” (Bioorg Med Chem Lett, 2022).
Changes are numbered by the printed parent chain.

Target: T1, Muscarinic acetylcholine receptor M1 (Homo sapiens, UniProt P11229)
T1 sequence (P11229 whole entry): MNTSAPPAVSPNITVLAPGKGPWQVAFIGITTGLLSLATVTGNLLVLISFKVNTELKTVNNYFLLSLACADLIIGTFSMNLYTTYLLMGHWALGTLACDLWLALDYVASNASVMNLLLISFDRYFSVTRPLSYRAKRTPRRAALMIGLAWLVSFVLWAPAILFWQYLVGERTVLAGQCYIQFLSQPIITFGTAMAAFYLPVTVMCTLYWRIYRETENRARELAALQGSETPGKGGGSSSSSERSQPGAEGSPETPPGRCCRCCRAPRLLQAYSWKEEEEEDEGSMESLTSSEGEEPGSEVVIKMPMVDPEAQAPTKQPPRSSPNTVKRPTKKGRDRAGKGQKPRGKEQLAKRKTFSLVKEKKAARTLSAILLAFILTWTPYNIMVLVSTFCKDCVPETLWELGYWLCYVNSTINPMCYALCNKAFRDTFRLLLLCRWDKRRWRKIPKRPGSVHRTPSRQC
Experiment: Antagonist activity at human muscarinic M1 receptor expressed in CHO cells in the presence of acetylcholine by calcium mobilisation assay
Format: functional, cell-based
Settings: not given

Compound	IC50
Cc1nn(C)cc1S(=O)(=O)N1CCC(C(=O)Nc2ccc3scnc3c2)CC1	> 10000 nM
Cc1nn(C)cc1S(=O)(=O)N1CC[C@H](C(=O)Nc2ccc3scnc3c2)[C@@H](F)C1 (racemic)	> 10000 nM

Test system: not listed separately
Experiment: Intrinsic clearance in rat
Format: ADME
Settings: not given

Compound	CLint scaled
O=C(Nc1ccc2scnc2c1)C1CCN(S(=O)(=O)c2ccc3ncsc3c2)CC1	81 mL/min/kg
O=C(Nc1ccc2snnc2c1)C1CCN(S(=O)(=O)c2ccc3c(c2)CCO3)CC1	804 mL/min/kg
Cc1ccc(S(=O)(=O)N2CCC(C(=O)Nc3ccc4scnc4c3)CC2)cn1	43 mL/min/kg
Cc1nn(C)cc1S(=O)(=O)N1CCC(C(=O)Nc2ccc3scnc3c2)CC1	45 mL/min/kg
Cc1nc2cc(NC(=O)C3CCN(S(=O)(=O)c4ccc5c(c4)CCO5)CC3)ccc2s1	426 mL/min/kg
O=C(Nc1ccc2scnc2c1)C1CCN(S(=O)(=O)c2ccc3ncccc3c2)CC1	212 mL/min/kg
O=C(Nc1ccc2cccnc2c1)C1CCN(S(=O)(=O)c2ccc3c(c2)CCO3)CC1	740 mL/min/kg
O=C(Nc1ccc2scnc2c1)C1CCN(S(=O)(=O)c2cccnc2)CC1	207 mL/min/kg
O=C(Nc1ccc2scnc2c1)C1CCN(S(=O)(=O)c2ccc(Cl)nc2)CC1	62 mL/min/kg
Cc1nn(C)cc1S(=O)(=O)N1CC[C@H](C(=O)Nc2ccc3scnc3c2)[C@@H](F)C1 (racemic)	260 mL/min/kg

Target: T2, Muscarinic acetylcholine receptor M5 (Homo sapiens) (UniProt P08912)
T2 sequence (whole entry): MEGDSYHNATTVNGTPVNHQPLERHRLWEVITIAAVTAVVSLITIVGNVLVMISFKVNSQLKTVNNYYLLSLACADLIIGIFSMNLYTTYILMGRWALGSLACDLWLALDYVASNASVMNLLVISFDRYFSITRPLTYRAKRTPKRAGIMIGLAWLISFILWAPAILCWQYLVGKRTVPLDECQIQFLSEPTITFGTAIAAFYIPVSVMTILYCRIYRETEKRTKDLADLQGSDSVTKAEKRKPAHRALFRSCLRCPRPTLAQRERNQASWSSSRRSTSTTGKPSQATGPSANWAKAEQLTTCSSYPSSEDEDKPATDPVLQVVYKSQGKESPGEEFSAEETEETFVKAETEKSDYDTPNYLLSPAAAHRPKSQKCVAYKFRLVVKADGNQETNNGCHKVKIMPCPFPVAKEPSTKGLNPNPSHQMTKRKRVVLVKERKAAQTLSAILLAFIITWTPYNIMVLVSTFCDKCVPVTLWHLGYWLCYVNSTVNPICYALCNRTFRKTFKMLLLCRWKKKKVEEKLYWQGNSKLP
Experiment: Antagonist activity at human muscarinic M5 receptor expressed in CHO cells assessed as minimal acetylcholine response by calcium mobilisation assay relative to control
Format: functional, cell-based
Parameters: concentration or dose not given beside the values
Settings: filed as antagonist

Compound	Activity
O=C(Nc1ccc2scnc2c1)C1CCN(S(=O)(=O)c2ccc3ncsc3c2)CC1	2%
O=C(Nc1ccc2snnc2c1)C1CCN(S(=O)(=O)c2ccc3c(c2)CCO3)CC1	10%
Cc1ccc(S(=O)(=O)N2CCC(C(=O)Nc3ccc4scnc4c3)CC2)cn1	3%
Cc1nn(C)cc1S(=O)(=O)N1CCC(C(=O)Nc2ccc3scnc3c2)CC1	2%
Cc1nc2cc(NC(=O)C3CCN(S(=O)(=O)c4ccc5c(c4)CCO5)CC3)ccc2s1	19%
O=C(Nc1ccc2scnc2c1)C1CCN(S(=O)(=O)c2ccc3ncccc3c2)CC1	2%
O=C(Nc1ccc2cccnc2c1)C1CCN(S(=O)(=O)c2ccc3c(c2)CCO3)CC1	3%
O=C(Nc1ccc2scnc2c1)C1CCN(S(=O)(=O)c2cccnc2)CC1	2%
O=C(Nc1ccc2scnc2c1)C1CCN(S(=O)(=O)c2ccc(Cl)nc2)CC1	3%
Cc1nn(C)cc1S(=O)(=O)N1CC[C@H](C(=O)Nc2ccc3scnc3c2)[C@@H](F)C1 (racemic)	3%

Test system: not listed separately
Experiment: Unbound fraction in rat plasma
Format: ADME, cell-free
Settings: not given

Compound	Fu
Cc1nn(C)cc1S(=O)(=O)N1CCC(C(=O)Nc2ccc3scnc3c2)CC1	0.03
Cc1nn(C)cc1S(=O)(=O)N1CC[C@H](C(=O)Nc2ccc3scnc3c2)[C@@H](F)C1 (racemic)	0.02

Test system: not listed separately
Experiment: Elimination half life in rat
Format: ADME
Settings: in vivo, read-out: beta t1/2

Compound	half-life
Cc1nn(C)cc1S(=O)(=O)N1CCC(C(=O)Nc2ccc3scnc3c2)CC1	1.43 h

Test system: not listed separately
Experiment: Apparent permeability in MDCK-MDR1 cells
Format: ADME, cell-based, Canis lupus familiaris
Settings: dog

Compound	Papp
Cc1nn(C)cc1S(=O)(=O)N1CCC(C(=O)Nc2ccc3scnc3c2)CC1	0.374 10^-6 cm/s
Cc1nn(C)cc1S(=O)(=O)N1CC[C@H](C(=O)Nc2ccc3scnc3c2)[C@@H](F)C1 (racemic)	0.431 10^-6 cm/s

Test system: not listed separately
Experiment: Unbound fraction in rat brain
Format: ADME, tissue-based
Settings: not given

Compound	fraction unbound
Cc1nn(C)cc1S(=O)(=O)N1CCC(C(=O)Nc2ccc3scnc3c2)CC1	0.2
Cc1nn(C)cc1S(=O)(=O)N1CC[C@H](C(=O)Nc2ccc3scnc3c2)[C@@H](F)C1 (racemic)	0.17

Test system: P-glycoprotein (human)
Experiment: Efflux ratio of permeability in MDCK-MDR1 cells expressing human P-glycoprotein
Format: ADME, cell-based, Canis lupus familiaris
Settings: dog

Compound	efflux ratio
Cc1nn(C)cc1S(=O)(=O)N1CCC(C(=O)Nc2ccc3scnc3c2)CC1	110
Cc1nn(C)cc1S(=O)(=O)N1CC[C@H](C(=O)Nc2ccc3scnc3c2)[C@@H](F)C1 (racemic)	110

Target: T3, Muscarinic acetylcholine receptor M5 (Rattus norvegicus, UniProt P08911)
T3 sequence (P08911 whole entry): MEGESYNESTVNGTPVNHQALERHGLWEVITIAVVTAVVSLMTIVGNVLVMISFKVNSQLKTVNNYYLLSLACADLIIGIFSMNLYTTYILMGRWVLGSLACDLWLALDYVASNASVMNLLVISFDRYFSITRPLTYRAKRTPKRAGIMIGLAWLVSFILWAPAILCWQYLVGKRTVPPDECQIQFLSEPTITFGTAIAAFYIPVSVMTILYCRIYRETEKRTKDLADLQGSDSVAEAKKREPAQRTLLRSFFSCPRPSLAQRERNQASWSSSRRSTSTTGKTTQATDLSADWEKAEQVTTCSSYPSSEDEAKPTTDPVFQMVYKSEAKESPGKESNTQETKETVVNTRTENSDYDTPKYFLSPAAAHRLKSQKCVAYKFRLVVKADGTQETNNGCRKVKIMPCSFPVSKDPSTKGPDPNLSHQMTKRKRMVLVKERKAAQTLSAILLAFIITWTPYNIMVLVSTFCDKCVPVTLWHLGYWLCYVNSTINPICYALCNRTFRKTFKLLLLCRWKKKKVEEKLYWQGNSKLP
Experiment: Antagonist activity at rat muscarinic M5 receptor
Format: functional
Settings: not given

Compound	IC50
Cc1nn(C)cc1S(=O)(=O)N1CCC(C(=O)Nc2ccc3scnc3c2)CC1	1330 nM
Cc1nn(C)cc1S(=O)(=O)N1CC[C@H](C(=O)Nc2ccc3scnc3c2)[C@@H](F)C1 (racemic)	572 nM

Test system: not listed separately
Experiment: Volume of distribution at steady state in rat
Format: ADME
Settings: in vivo, read-out: Vdss

Compound	Vd
Cc1nn(C)cc1S(=O)(=O)N1CCC(C(=O)Nc2ccc3scnc3c2)CC1	0.61 L/kg

Test system: not listed separately
Experiment: Unbound fraction in human plasma
Format: ADME, cell-free
Settings: not given

Compound	Fu
Cc1nn(C)cc1S(=O)(=O)N1CCC(C(=O)Nc2ccc3scnc3c2)CC1	0.14
Cc1nn(C)cc1S(=O)(=O)N1CC[C@H](C(=O)Nc2ccc3scnc3c2)[C@@H](F)C1 (racemic)	0.26

Target: T4, Muscarinic acetylcholine receptor M5 (Rattus norvegicus) (UniProt P08911)
T4 sequence (whole entry): T3 sequence (P08911 whole entry)
Experiment: Antagonist activity at rat muscarinic M5 receptor assessed as minimal acetylcholine response relative to control
Format: functional
Parameters: scale not given: the % may be the effect or the level left
Settings: filed as antagonist

Compound	Activity
Cc1nn(C)cc1S(=O)(=O)N1CCC(C(=O)Nc2ccc3scnc3c2)CC1	4%
Cc1nn(C)cc1S(=O)(=O)N1CC[C@H](C(=O)Nc2ccc3scnc3c2)[C@@H](F)C1 (racemic)	3%

Target: T5, Muscarinic acetylcholine receptor M1 (Rattus norvegicus, UniProt P08482)
T5 sequence (P08482 whole entry): T1 sequence (P11229 whole entry) with A5V, T254S, P309S, R320K, A337G, I413V
Experiment: Antagonist activity at rat muscarinic M1 receptor expressed in CHO cells in the presence of acetylcholine by calcium mobilisation assay
Format: functional, cell-based
Settings: not given

Compound	IC50
Cc1nn(C)cc1S(=O)(=O)N1CCC(C(=O)Nc2ccc3scnc3c2)CC1	> 10000 nM

Target: T6, Muscarinic acetylcholine receptor M1 (Homo sapiens) (UniProt P11229)
T6 sequence (whole entry): T1 sequence (P11229 whole entry)
Experiment: Antagonist activity at human muscarinic M1 receptor expressed in CHO cells assessed as minimal acetylcholine response by calcium mobilisation assay
Format: functional, cell-based
Parameters: scale not given: the % may be the effect or the level left
Settings: not given

Compound	Activity
Cc1nn(C)cc1S(=O)(=O)N1CCC(C(=O)Nc2ccc3scnc3c2)CC1	50%
Cc1nn(C)cc1S(=O)(=O)N1CC[C@H](C(=O)Nc2ccc3scnc3c2)[C@@H](F)C1 (racemic)	51%

Test system: not listed separately
Experiment: Clearance in rat plasma
Format: ADME, cell-free
Settings: not given

Compound	clearance
Cc1nn(C)cc1S(=O)(=O)N1CCC(C(=O)Nc2ccc3scnc3c2)CC1	11.1 mL/min/kg

Test system: not listed separately
Experiment: Intrinsic clearance in human
Format: ADME
Settings: not given

Compound	CLint scaled
O=C(Nc1ccc2scnc2c1)C1CCN(S(=O)(=O)c2ccc3ncsc3c2)CC1	36 mL/min/kg
O=C(Nc1ccc2snnc2c1)C1CCN(S(=O)(=O)c2ccc3c(c2)CCO3)CC1	108 mL/min/kg
Cc1ccc(S(=O)(=O)N2CCC(C(=O)Nc3ccc4scnc4c3)CC2)cn1	5 mL/min/kg
Cc1nn(C)cc1S(=O)(=O)N1CCC(C(=O)Nc2ccc3scnc3c2)CC1	5 mL/min/kg
Cc1nc2cc(NC(=O)C3CCN(S(=O)(=O)c4ccc5c(c4)CCO5)CC3)ccc2s1	74 mL/min/kg
O=C(Nc1ccc2scnc2c1)C1CCN(S(=O)(=O)c2ccc3ncccc3c2)CC1	20 mL/min/kg
O=C(Nc1ccc2cccnc2c1)C1CCN(S(=O)(=O)c2ccc3c(c2)CCO3)CC1	99 mL/min/kg
O=C(Nc1ccc2scnc2c1)C1CCN(S(=O)(=O)c2cccnc2)CC1	19 mL/min/kg
O=C(Nc1ccc2scnc2c1)C1CCN(S(=O)(=O)c2ccc(Cl)nc2)CC1	21 mL/min/kg
Cc1nn(C)cc1S(=O)(=O)N1CC[C@H](C(=O)Nc2ccc3scnc3c2)[C@@H](F)C1 (racemic)	7 mL/min/kg

Target: T7, Muscarinic acetylcholine receptor M1 (Rattus norvegicus) (UniProt P08482)
T7 sequence (whole entry): T1 sequence (P11229 whole entry) with A5V, T254S, P309S, R320K, A337G, I413V
Experiment: Antagonist activity at rat muscarinic M1 receptor expressed in CHO cells assessed as minimal acetylcholine response by calcium mobilisation assay relative to control
Format: functional, cell-based
Parameters: scale not given: the % may be the effect or the level left
Settings: filed as antagonist

Compound	Activity
Cc1nn(C)cc1S(=O)(=O)N1CCC(C(=O)Nc2ccc3scnc3c2)CC1	35%

Target: T8, Muscarinic acetylcholine receptor M5 (Homo sapiens, UniProt P08912)
T8 sequence (P08912 whole entry): T2 sequence (whole entry)
Experiment: Antagonist activity at human muscarinic M5 receptor expressed in CHO cells in the presence of acetylcholine by calcium mobilisation assay
Format: functional, cell-based
Settings: not given

Compound	IC50
O=C(Nc1ccc2scnc2c1)C1CCN(S(=O)(=O)c2ccc3ncsc3c2)CC1	266 nM
O=C(Nc1ccc2snnc2c1)C1CCN(S(=O)(=O)c2ccc3c(c2)CCO3)CC1	143 nM
Cc1nc2cc(NC(=O)C3CCN(S(=O)(=O)c4ccc5c(c4)CCO5)CC3)ccc2s1	594 nM
O=C(Nc1ccc2scnc2c1)C1CCN(S(=O)(=O)c2cccnc2)CC1	59 nM
O=C(Nc1ccc2scnc2c1)C1CCN(S(=O)(=O)c2ccc(Cl)nc2)CC1	168 nM
Cc1nn(C)cc1S(=O)(=O)N1CC[C@H](C(=O)Nc2ccc3scnc3c2)[C@@H](F)C1 (racemic)	309 nM
